Test system: Monoclonal mouse 5α-PtG antibody
Assay: Cross-reactivity of monoclonal 5α-PtG antibody (enzyme immunoassay)
Type: binding
Settings: monoclonal mouse 5α-PtG antibody raised against 5α-PtG-KLH
Description: Monoclonal mouse 5α-PtG antibody was raised against the 5α-PtG-KLH by Thermo Fisher Scientific (Rockford, TL, USA). The antibodies were screened against the 5α-PtG-BSA. Cross-reactivities for the antibody were: 100% 5α-pregnane-3β,6α,20β-triol glucuronide, 25.4% 5α-pregnane-3β,6α,20β-triol, 0.5% 5β-pregnane-3α,20β-diol and 0.5% 5α-pregnane-3β,6α-diol-20-one.
The 96 well polystyrene, certified MaxiSorp® plates were coated with antigen (5α-PtG-cBSA) by adding 100 μl of 0.25 μg/ml antigen in coating buffer (0.01 M sodium bicarbonate, pH 9.5) in each well. The plates were covered with plastic sticker to prevent evaporation, protected from light and incubated at room temperature over night or several nights at +4° C. The wells were emptied and washed once with 250 μl general washing buffer (e.g. PBS with 0.05% Tween 20 (PBST)), filled with 200 μl blocking buffer (5% sucrose and 0.5% BSA in PBST (w/V)), covered and incubated at +37° C. for a half an hour. The plates were poured empty and dried for three hours at +37° C. Dried plates were covered with plastic sticker, packed in re-sealable plastic bags with silica beads and stored at +4° C. until use.
The hormone assays were performed from the individual samples collected in different oestrus cycle phases and from the urine sample series from 60 bitches. The 5α-PtG-cBSA coated plates were washed once with 250 μl of PBST. The urine samples were diluted 1:20 in assay buffer (0.2% BSA (w/V) in PBS with 0.01% Triton-X) and added in sample wells (50 μl). A dilution series of standard was prepared by diluting the 5α-PtG in assay buffer and added to standard wells (50 μl; 1200-1.6 nM). Assay buffer without additives was added to two wells to determine the maximum binding capacity (B0) and 1900 nM 5α-PtG control was diluted 1:20 in assay buffer and used as a recovery control in all assays. All samples and standards were measured as two replicates. The stock dilution of monoclonal mouse 5α-PtG antibody (1:100) was further diluted 1:100 in assay buffer and added 50 μl in each well. The plate was covered and incubated at +37° C. for half an hour, followed by washing the plate three times. Horseradish peroxidase labeled secondary antibody (goat anti-mouse IgG HRP) was diluted in 1:20 000 in 0.5% BSA (w/V) in PBST, added 100 μl per well and incubated half an hour at +37° C. After washing the plate three times with PBST, TMB in DMSO solution (0.5% 3,3′,5,5′-tetramethylbenzidine in dimethylsulfoxide (w/V; TCIAT1023 Tokyo Chemical Industry)) was diluted 1:50 in substrate buffer (0.1 M sodium acetate trihydrate, 1.5 mM citric acid monohydrate, 0.005% hydrogen peroxide (30%)), added in each well (100 μl) and incubated at room temperature 30 minutes. The reaction was stopped by adding 50 μl 1 M sulfuric acid to each well. The absorbance was measured at 450 nm by microplate reader (Hidex Sense).

Row | Structure (SMILES) | Cross-reactivities for the antibody
1 | C[C@@H](O)[C@H]1CC[C@H]2[C@@H]3C[C@H](O[C@@H]4O[C@H](C(=O)O)[C@@H](O)[C@H](O)[C@H]4O)[C@H]4C[C@@H](O)CC[C@]4(C)[C@H]3CC[C@]12C [5α-PtG, 5α-pregnane-3β,6α,20β-triol-6-O-β-D-glucuronide] | 100%
2 | C[C@H](O)[C@H]1CC[C@H]2[C@@H]3C[C@H](O)[C@H]4C[C@@H](O)CC[C@]4(C)[C@H]3CC[C@]12C [5α-pregnane-3β,6α,20α-triol] | No cross-reactivities
3 | C[C@@H](O)[C@H]1CC[C@H]2[C@@H]3C[C@H](O)[C@H]4C[C@@H](O)CC[C@]4(C)[C@H]3CC[C@]12C [5α-pregnane-3β,6α,20β-triol] | 25.4%
4 | CC(=O)[C@H]1CC[C@H]2[C@@H]3C[C@H](O)[C@H]4C[C@@H](O)CC[C@]4(C)[C@H]3CC[C@]12C [5α-pregnane-3β,6α-diol-20-one] | 0.5%
5 | C[C@@H](O)[C@@]1(O)CCC2C3CC[C@H]4C[C@@H](O)CC[C@]4(C)C3CC[C@@]21C (stereo partly drawn) [5α-pregnane-3β,17α,20β-triol] | No cross-reactivities
6 | C[C@H](O)[C@@]1(O)CC[C@H]2[C@@H]3CC[C@@H]4C[C@H](O)CC[C@]4(C)[C@H]3CC[C@@]21C [5β-pregnane-3α,17α,20α-triol] | No cross-reactivities
7 | CC(O)C1(O)CCC2C3CCC4CC(O)CCC4(C)C3CCC21C (stereo not drawn) [5β-pregnane-3α,17α,20β-triol] | No cross-reactivities
8 | C[C@H](O)[C@H]1CC[C@H]2[C@@H]3CC[C@@H]4C[C@H](O)CC[C@]4(C)[C@H]3CC[C@]12C [5β-pregnane-3α,20α-diol] | No cross-reactivities
9 | C[C@@H](O)[C@H]1CC[C@H]2[C@@H]3CC[C@@H]4C[C@H](O)CC[C@]4(C)[C@H]3CC[C@]12C [5β-pregnane-3α,20β-diol] | 0.5%
10 | C[C@H](O)[C@H]1CC[C@H]2[C@@H]3CC[C@@H]4C[C@H](O[C@@H]5O[C@H](C(=O)O)[C@@H](O)[C@H](O)[C@H]5O)CC[C@]4(C)[C@H]3CC[C@]12C [PdG, 5β-pregnane-3α,20α-diol-3-glucuronide] | No cross-reactivities
11 | CC(=O)[C@H]1CC[C@H]2[C@@H]3CCC4=CC(=O)CC[C@]4(C)[C@H]3CC[C@]12C [progesterone, pregn-4-ene-3,20-dione] | No cross-reactivities

Test system: hepatic S9 enzymes
Assay: In vitro metabolism of progesterone by hepatic S9
Type: in vitro ADME, dog
Settings: after one hour with ovarian S9, hepatic S9 added

Row | Structure (SMILES) | change of 17α-OHP when hepatic S9 were added
12 | CC(=O)[C@@]1(O)CC[C@H]2[C@@H]3CCC4=CC(=O)CC[C@]4(C)[C@H]3CC[C@@]21C [17α-OHP, 17α-hydroxyprogesterone] | decreased significantly

Same assay, conditions: dog, 50 µg/mL

Row | Structure (SMILES) | hydroxyprogesterones produced from progesterone
13 | CC(=O)[C@H]1CC[C@H]2[C@@H]3CCC4=CC(=O)CC[C@]4(C)[C@H]3CC[C@]12C [progesterone, pregn-4-ene-3,20-dione] | higher amounts of 6α-, 6β- and 16α-hydroxyprogesterones were detected
